Patent publication US20200157144A1, “ANTIMICROBIAL PEPTIDOMIMETICS” (priority 2017, published 2020)
Values after ≈ are worked out from the molar mass of the structure shown. Values joined by “and” are separate entries in the source; they are usually repeats but may differ in a detail not shown here. Equal entries are not always repeated. Where two headings read alike, the source gives them in different places.

Experiments:
Experiment in all cases: microbe, parasite or virus in culture
[1] = test system: Mupirocin-susceptible MRSA ATCC-BAA-1754 (ST45); type: cell-based, Staphylococcus aureus; details: Staphylococcus aureus
Method: (§1) The MICs of test compounds were determined using the microdilution method from the Clinical and Laboratory Standards Institute (CLSI) guidelines (Clinical and Laboratory Standards Institute. Methods for dilution antimicrobial susceptibility tests for bacteria that grow aerobically; approved standard—ninth edition. Document M07-A9. Vol. 32 No. 2. Wayne, Pa.: CLSI; 2012). Briefly, bacteria were grown fresh from frozen stock in Mueller Hinton 2 (MH2) agar at 37° C. After an overnight incubation, 5 bacteria colonies were selected to grow in cation-adjusted MH2 broth in a shaking incubator (140 RPM) at 37° C. Cells were grown to an optical density (OD600) of 0.15-0.16 determined using a spectrophotometer (Molecular Devices Spectra Max Plus), which corresponds to ˜1×10^8 CFU/mL. Test compounds were constituted into 4 mM DMSO stock solutions and then subjected to 2-fold serial dilution in a 96-well plate with concentrations ranging from 100 to 0.195 μM in duplicates. […] of microbial culture containing ˜1×10^6 CFU/mL of microbes in the respective broths was introduced into each well containing 50 μL of compound solution. After an overnight incubation at 35° C., (220 RPM), OD600 measurements were conducted using the microplate spectrophotometer. The MIC was defined as the lowest antibiotic or compound concentration (μM) required to inhibit bacteria growth.
(§2) The 11th well was used as the growth control well (medium with bacterial inoculums, no antibacterial) while the 12th well was the sterility control well (medium only).

[2] = test system: Mupirocin-resistant MRSA ATCC-BAA-1556; type: cell-based, Staphylococcus aureus; details: Staphylococcus aureus
Method: as §1, §2

[3] = test system: Mupirocin-susceptible MRSA ATCC-BAA-1681 (USA100); type: cell-based, Staphylococcus aureus; details: Staphylococcus aureus
Method: as §1, §2

[4] = test system: Mupirocin-susceptible MRSA ATCC-BAA-1707 (USA400); type: cell-based, Staphylococcus aureus; details: Staphylococcus aureus
Method: as §1, §2

[5] = test system: Mupirocin-resistant MRSA ATCC-BAA-1708; type: cell-based, Staphylococcus aureus; details: Staphylococcus aureus
Method: as §1, §2

[6] = test system: Mupirocin-susceptible MRSA ATCC-33592 (ST239); type: cell-based, Staphylococcus aureus; details: Staphylococcus aureus
Method: as §1, §2

[7] = test system: Mupirocin-susceptible MRSA ATCC-700699 (VISA); type: cell-based, Staphylococcus aureus; details: Staphylococcus aureus
Method: as §1, §2

[8] = test system: Mupirocin-susceptible MRSA ATCC-BAA-1756 (USA300); type: cell-based, Staphylococcus aureus; details: Staphylococcus aureus
Method: as §1, §2

[9] = test system: Mupirocin-susceptible MRSA ATCC-BAA-2762 (EMRSA15, ST22); type: cell-based, Staphylococcus aureus; details: Staphylococcus aureus
Method: as §1, §2

[10] = test system: Mupirocin-resistant MRSA ATCC-BAA-1750 (USA200); type: cell-based, Staphylococcus aureus; details: Staphylococcus aureus
Method: as §1, §2

[11] = test system: S. aureus (ATCC BAA-1556); details: Staphylococcus aureus, ATCCBAA1556, 24 h, read-out: Mean MIC
Method: S. aureus (BAA-1556) was from ATCC. Mupirocin (Cat # M2955) was purchased from TCI chemicals (India) Pvt. […] Ltd, India, Cation adjusted Mueller Hinton broth (CAMHB) and Mueller Hinton Agar (MHA) (Cat # M1657) were from HiMedia Laboratories Pvt. Ltd, India.
The MIC assay was done based on CLSI guidelines in a microtitre plate format (1, 2). Preparation and dilution of Test Item (TI) stock solutions: A 1280 μg/ml stock of Compound 34 was prepared by dissolving 1.28 mg in 1.0 ml of sterile water to obtain the Master Stock (MS) solution. The MS solution was diluted 2-fold to obtain a series of Working Stock (WS) solutions (Table 7). The final concentration of solvent in the assay was 2.5% and the assay volume was […].
Preparing the inoculum: One day before initiation of experiment, an isolated colony of S. aureus (ATCC BAA-1556) was inoculated into sterile CAMHB and incubated at 37° C. to exponential phase. After incubation, the turbidity was adjusted to that of a 0.5 McFarland Standard (approximately equivalent to 1.0×10^8 CFU/ml) and diluted to ˜1.0×10^6 CFU/ml.
MIC Assay: The MIC assay was performed in a 96 well microtitre plate in a total assay volume of 100 μl (Table 7). Each well containing different concentrations of test compound (concentration range between 0.015625 and 16.0 μg/ml) was inoculated with 50 μl of bacterial suspension (prepared from the inoculum grown overnight and adjusted approximately to 5.0×10^5 CFU/ml) along with culture control (CC, culture in broth), broth control (BC, broth only), and vehicle control (VC, 2.5% solvent in broth plus culture). The plate was incubated at 37° C. for 24 hr and turbidity was measured spectrophotometrically (Absorbance microplate reader, BioTek® India, ELx800™) at 600 nm and visually. The experiment was done in duplicates. The inoculum was also plated for enumeration of bacteria. The MIC was defined as the lowest concentration of test compound that prevented bacterial growth (lack of turbidity by OD at 600 nm and visual inspection relative to no growth control).

S. aureus NARSA VRS1 = type: cell-based; details: Staphylococcus aureus; S. aureus NARSA VRS1; CAMHB II; read-out: MIC
Method: (§3) The antibacterial potency of Compound 34 was measured using the in vitro broth microdilution assay under assay conditions described by the Clinical and Laboratory Standards Institute. […] The test substance was dissolved in 100% DMSO (unless stated below), suspended completely by sonication or vortexing, diluted by 2-fold serial titrations in the same vehicle, for a total of 11 test concentrations. A 4 μL aliquot of each dilution was added to 196 μL of broth medium seeded with the organism suspension in wells of a 96 well plate (bacterial count: 2-8×10^5 colony forming units/mL final). The final volume was 200 μL in each well and the final DMSO concentration was 2%. The incubation time is 1 day at 36° C. All strains tested underwent aerobic respiration. Following incubation, the test plates were visually examined and wells were scored for growth or complete growth inhibition to define the minimum inhibitory concentration. Each test substance was evaluated in duplicate and the results below are the duplicate test values. Vehicle-control and an active reference agent were used as blank and positive controls, respectively.

S. aureus NARSA VRS2 = type: cell-based; details: Staphylococcus aureus; S. aureus NARSA VRS2; CAMHB II; read-out: MIC
Method: as §3

S. aureus NARSA VRS3a = type: cell-based; details: Staphylococcus aureus; S. aureus NARSA VRS3a; CAMHB II; read-out: MIC
Method: as §3

S. aureus ECL 2963646 = type: cell-based; details: Staphylococcus aureus, ECL2963646; S. aureus ECL 2963646; CAMHB II; read-out: MIC
Method: as §3

S. aureus NARSA VRS11b = type: cell-based; details: Staphylococcus aureus; S. aureus NARSA VRS11b; CAMHB II; read-out: MIC
Method: as §3

[12] = test system: Propionibacterium acnes ATCC 29399; type: cell-based; details: Cutibacterium acnes, ATCC29399
Method: (§4) The antibacterial potency of Compound 34 was measured using the in vitro broth microdilution assay under assay conditions described by the Clinical and Laboratory Standards Institute. […] The test substance was dissolved in 100% DMSO (unless stated below), suspended completely by sonication or vortexing, diluted by 2-fold serial titrations in the same vehicle, for a total of 10 test concentrations (final concentrations: 100, 50, 25, 12.5, 6.25, 3.125, 1.56, 0.78, 0.39, 0.2 μM). A 4 μL aliquot of each dilution was added to 196 μL of broth medium seeded with the organism suspension in wells of a 96 well plate (bacterial count: 2-8×10^5 colony forming units/mL final). The final volume was 200 μL in each well and the final DMSO concentration was 2 percent. The incubation time is either 1 or 2 days at 36° C. All strains tested underwent aerobic respiration, except for ATCC BAA-1805 and ATCC 29399. Following incubation, the test plates were visually examined and wells were scored for growth or complete growth inhibition to define the minimum inhibitory concentration. Each test substance was evaluated in duplicate and the results below are the duplicate test values. Vehicle-control and an active reference agent were used as blank and positive controls, respectively.

[13] = test system: Staphylococcus epidermidis ATCC 12228; type: cell-based; details: Staphylococcus epidermidis, ATCC12228
Method: as §4, with “values.” for “values. Vehicle-control and an active reference agent were used as blank and positive controls, respectively.”

[14] = test system: Staphylococcus aureus ATCC 19636; type: cell-based; details: Staphylococcus aureus, ATCC19636
Method: as §4, with “values.” for “values. Vehicle-control and an active reference agent were used as blank and positive controls, respectively.”

[15] = test system: Staphylococcus aureus ATCC BAA-1717; type: cell-based; details: Staphylococcus aureus, ATCCBAA1717
Method: as §4, with “values.” for “values. Vehicle-control and an active reference agent were used as blank and positive controls, respectively.”

[16] = Mupirocin-susceptible MRSA ATCC-700699 (VISA), read-out: MIC

| Structure (SMILES) | MIC [1] [µM] | MIC [2] [µM] | MIC [3] [µM] | MIC [4] [µM] | MIC [5] [µM] | MIC [6] [µM] | MIC [7, 16] [µM] | MIC [8] [µM] | MIC [9] [µM] | MIC [10] [µM] | MIC [11] | MIC [7] [µM] | also measured |
| --- | --- | --- | --- | --- | --- | --- | --- | --- | --- | --- | --- | --- | --- |
| CC(=O)NC[C@H]1CN(c2ccc(N3CCOCC3)c(F)c2)C(=O)O1 [Linezolid] | 6.25 (≈ 2.11 µg/mL) | 6.25 (≈ 2.11 µg/mL) | 6.25 (≈ 2.11 µg/mL) | 6.25 (≈ 2.11 µg/mL) | 6.25 (≈ 2.11 µg/mL) | 6.25 (≈ 2.11 µg/mL) | 3.12 (≈ 1.05 µg/mL) | 6.25 (≈ 2.11 µg/mL) | 6.25 (≈ 2.11 µg/mL) | 6.25 (≈ 2.11 µg/mL) | 1 µg/mL and 2.96 µM | – | MIC (S. aureus NARSA VRS1): 2 µg/mL and 5.93 µM; MIC (S. aureus NARSA VRS2): 2 µg/mL and 5.93 µM; MIC (S. aureus NARSA VRS3a): 4 µg/mL and 11.9 µM; MIC (S. aureus ECL 2963646): 2 µg/mL and 5.93 µM; MIC (S. aureus NARSA VRS11b): 2 µg/mL and 5.93 µM |
| C/C(=C\C(=O)OCCCCCCCCC(=O)O)C[C@@H]1OC[C@H](C[C@@H]2O[C@H]2[C@@H](C)[C@H](C)O)[C@@H](O)[C@H]1O [Mupirocin] | – | – | – | – | – | – | ≤ 0.2 | – | – | – | > 16 µg/mL and > 32 µM | – | MIC ([1]; Mupirocin-susceptible MRSA ATCC-BAA-1754 (ST45), read-out: MIC): ≤ 0.2 µM; MIC ([2]; Mupirocin-resistant MRSA ATCC-BAA-1556, cation-adjusted MH2 broth, overnight 35° C., OD600, read-out: MIC): > 100 µM; MIC ([3]; Mupirocin-susceptible MRSA ATCC-BAA-1681 (USA100), read-out: MIC): ≤ 0.2 µM; MIC ([4]; Mupirocin-susceptible MRSA ATCC-BAA-1707 (USA400), read-out: MIC): ≤ 0.2 µM; MIC ([5]; Mupirocin-resistant MRSA ATCC-BAA-1708, read-out: MIC): > 100 µM; MIC ([6]; Mupirocin-susceptible MRSA ATCC-33592 (ST239), read-out: MIC): ≤ 0.2 µM; MIC ([8]; Mupirocin-susceptible MRSA ATCC-BAA-1756 (USA300), read-out: MIC): ≤ 0.2 µM; MIC ([9]; Mupirocin-susceptible MRSA ATCC-BAA-2762 (EMRSA15, ST22), read-out: MIC): ≤ 0.2 µM; MIC ([10]; Mupirocin-resistant MRSA ATCC-BAA-1750 (USA200), read-out: MIC): 25 µM (≈ 12.5 µg/mL) |
| C=C[C@]1(C)C[C@@H](OC(=O)CS[C@@H]2C[C@H]3CC[C@@H](C2)N3C)[C@]2(C)[C@H](C)CC[C@]3(CCC(=O)[C@H]32)[C@@H](C)[C@@H]1O [Retapamulin] | ≤ 0.2 | ≤ 0.2 | ≤ 0.2 | ≤ 0.2 | ≤ 0.2 | ≤ 0.2 | – | ≤ 0.2 | ≤ 0.2 | ≤ 0.2 | – | ≤ 0.2 | – |
| CN[C@H](CC(C)C)C(=O)N[C@H]1C(=O)N[C@@H](CC(N)=O)C(=O)N[C@H]2C(=O)N[C@H]3C(=O)N[C@H](C(=O)N[C@H](C(=O)O)c4cc(O)cc(O)c4-c4cc3ccc4O)[C@H](O)c3ccc(c(Cl)c3)Oc3cc2cc(c3O[C@@H]2O[C@H](CO)[C@@H](O)[C@H](O)[C@H]2O[C@H]2C[C@](C)(N)[C@H](O)[C@H](C)O2)Oc2ccc(cc2Cl)[C@H]1O [Vancomycin] | 0.78 (≈ 1.13 µg/mL) | 0.78 (≈ 1.13 µg/mL) | 1.56 (≈ 2.26 µg/mL) | 0.78 (≈ 1.13 µg/mL) | 0.78 (≈ 1.13 µg/mL) | 0.78 (≈ 1.13 µg/mL) | – | 0.78 (≈ 1.13 µg/mL) | 0.78 (≈ 1.13 µg/mL) | 0.78 (≈ 1.13 µg/mL) | – | 6.25 (≈ 9.06 µg/mL) | MIC [12]: 0.5 µg/mL and 0.35 µM; MIC [13]: 1 µg/mL (≈ 0.69 µM); MIC [14]: 1 µg/mL (≈ 0.69 µM); MIC [15]: 1 µg/mL (≈ 0.69 µM) |
